For one assay, the system named is sodium channel. Briefly: [14C] guanidine uptake test (sodium channel inhibition test), veratridine-induced uptake into rat cerebral cortex primary neurons. In kind it is cell-based. The note with it: 100 μM veratridine, 25° C., 15 minutes, specific uptake defined by 1 mM mexiletine. On the procedure: (Sodium Channel Inhibition Test)
The [^14C] guanidine uptake test was conducted by modifying the method of Bonisch et al. (British Journal of Pharmacology 108, 436-442, 1993). The [^14C] guanidine was used as a sodium tracer, and the inhibitory activity on uptake of [^14C] guanidine induced by veratridine as a sodium channel activator into rat cerebral cortex primary neurons was measured.
a. Preparation of Rat Cerebral Cortex Primary Neuron Culture System.
A pregnant rat (Wistar, female, pregnancy=19 days old) was anesthetized with diethyl ether and killed by bleeding with the cutting of the carotid artery. Fetuses were excised from the pregnant rat and sterilized with ethanol for disinfection. Then, from the fetuses was dissociated the cerebral cortex. The cerebral cortex was digested with papain and dispersed in a culture medium. Then, the dissociated neurons were placed in a 96-well white plate coated with a poly-L-lysine, at a density of […], and cultured for 2 days in a CO2 incubator (37° C., 5% CO2)
b. Evaluation of Test Compounds
Each well was washed once with an assay buffer (135 mM choline Cl, 5 mM KCl, 1 mM MgSO4, 5.5 mM glucose, 1 mg/mL BSA, 10 mM Hepes-Tris, pH 7.4). The assay buffer was added to each well and incubated at 25° C. for 10 minutes. Then, the assay buffer was replaced by a reaction solution (test compound, [^14C] guanidine and 100 μM veratridine) and incubated at 25° C. for 15 minutes. The reaction was terminated by three times washing with a cold-washing buffer (135 mM NaCl, 5 mM KCl, 1 mM MgSO4, 10 mM Hepes-Tris, pH 7.4). To each well was added 17 μL of 0.1 N NaOH; stirring was made; then, 100 μL of a scintillator was added; and the radioactivity of each well was measured using a liquid scintillator counter. In each test, the uptake amount of [^14C] guanidine inhibited by 1 mM of mexiletine was taken as the portion of the specific uptake via sodium channel. The activity of test compound on sodium channel is expressed by 50% inhibitory concentration (IC50) for the specific uptake.

Assay [1] concerns streptozotocin (STZ)-induced diabetic mice. Briefly: Analgesic action on diabetic neuropathy in streptozotocin-induced diabetic mice (tail pinch test). In kind it is in vivo. The note with it: orally 30 mg/kg, 45 minutes prior to measurement, Day 15 after STZ injection, ICR mice. On the procedure: (Analgesic Action on Diabetic Neuropathy in Streptozotocin-Induced Diabetic Mice)
Representative compounds of Compound (I) of the present invention were assessed for the analgesic action on diabetic neuropathy in streptozotocin (STZ)-induced diabetic mice to confirm the effect on neuropathic pain. The assessment was performed by the method of Kamei et al. (Pharmacology Biochemistry & Behavior 39, 541-544, 1991) with some modifications.
Male ICR mice of 4 weeks old were intraperitoneally injected with 200 mg/kg weight of STZ to prepare mice with diabetic neuropathy. The analgesic action was assessed by the tail pinch test. […] On Day 14 following the STZ injection, a pretest was carried out to determine the response latency before the administration of a test compound. Only the animals showing not longer than 3 seconds of the response latency in the pretest were used for the test compound assessment on the following day (Day 15 after STZ injection). In the test compound assessment, the response latency after the administration of a test compound was measured. The test compound was orally administered at a dose of 30 mg/kg, 45 minutes prior to the response latency measurement. The analgesic action of a test compound is expressed as prolongation of latency (in seconds) calculated by the formula: (response latency after administration of a test compound)−(response latency before administration of a test compound).

In assay [2] the test system is L5/L6 spinal nerve ligation rats. Briefly: animal or person. The note with it: Rattus norvegicus, po, read-out: ED50 (anti-allodynia action potency).
Experimental: (Anti-Allodynia Effect in Rats with L5/L6 Spinal Nerve Ligation)
The assessment was performed by the method of Kim and Chung (Pain 50, 355-363, 1992) with some modifications. Under pentobarbital anesthesia, male SD rats of 5 or 6 weeks old were given surgery to ligate both the left L5 and L6 lumbar spinal nerves tightly with silk threads. For the assessment of analgesic action, the von Frey hair test was adopted. That is, the animal's hindpaw was picked with hair and the lowest strength of hair for limb withdrawal response was designated as a response threshold (log gram) to mechanical stimulation. […] On the day before the assessment of a test compound, the response threshold before administration of a test compound was measured. The animals were divided into 4 to 5 groups so that differences in the mean values of response thresholds before administration among the groups and variation within groups become small. In the assessment of a test compound, the response threshold after administration of the test compound was measured. The test compound was orally given 30 minutes before measurement of the response threshold. The anti-allodynia action potency of a test compound is expressed as ED50. In the calculation of the ED50, the thresholds of ipsilateral and contralateral paws in the solvent group were designated as 0% and 100%, respectively.

Structures can show the parent of a compound that is named as a salt.

In the assay with sodium channel, `CC(C)Oc1ccccc1/C=C/C1CCN(C(=O)CN2CCOCC2)CC1` [Example 10] had an IC50 of 16 µM. That is a double-digit micromolar value. Compound `O=C(C1CCCN1)N1CCC(/C=C/c2ccc(Cl)cc2)CC1` (centres unmarked) [Example 74] showed a 50% inhibitory concentration (IC50) in the assay with sodium channel of 13 µM. For the compound `O=C(CNC1CCCCC1)N1CCC(/C=C/c2ccc(Cl)cc2)CC1` [Example 76, N-2-{4-[(E)-2-(4-chlorophenyl)vinyl]piperidin-1-yl}-2-oxoethyl)cyclohexaneamine oxalate], the IC50 in the assay on sodium channel worked out at 3.4 µM. Besides, the “Increase in latent time (prolongation of latency, tail pinch)” value (“Increase in latent time” for short) in assay [1] was determined as 3.2 s.

Compound `Cc1cccc(C)c1OCC(C)N` (centres unmarked) [mexiletine, reference compound] returned an IC50 in the assay on sodium channel of approximately 70 µM. For the same compound, the ED50 in assay [2] is approximately 70 mg/kg.

In the case of `O=C(CN1CCCOCC1)N1CCC(/C=C/c2ccc(Cl)cc2)CC1` [Example 65], in the assay on sodium channel, 12 µM corresponded to half-maximal inhibition (IC50). This counts as double-digit micromolar. `O=C(CN1CCOCC1)N1CCC(/C=C/c2ccccc2Cl)CC1` [Example 1, 4-(2-{4-[(E)-2-(2-chlorophenyl)vinyl]piperidin-1-yl}-2-oxoethyl)morpholine oxalate] had a 50% inhibitory concentration (IC50) with sodium channel of 27 µM. `O=C(CN1CCOCC1)N1CCC(/C=C\c2ccc(Cl)cc2)CC1` [Example 52]: the half-inhibitory concentration (IC50) in the assay on sodium channel is 24 µM. `O=C(CN1CCOCC1)N1CCC(/C=C/c2ccc(Cl)cc2)CC1` [Example 40, 4-(2-{4-[(E)-2-(4-chlorophenyl)vinyl]piperidin-1-yl}-2-oxoethyl)morpholine] showed a half-inhibitory concentration (IC50) in the assay on sodium channel of 23 µM. In addition, in assay [1], the “Increase in latent time” value came to 3.4 s. Compound `CC(C)c1ccc(/C=C/C2CCN(C(=O)CN3CCOCC3)CC2)cc1` [Example 26, 4-(2-{4-[(E)-2-(4-isopropylphenyl)vinyl]piperidin-1-yl}-2-oxoethyl)morpholine] came in with a half-inhibitory concentration (IC50) in the assay on sodium channel of 25 µM. Also, the “Increase in latent time” value in assay [1] came to 2.3 s. In turn, `O=C(CN1CCNCC1)N1CCC(/C=C/c2cccc(Cl)c2)CC1` [Example 68, 1-(2-{4-[(E)-2-(3-chlorophenyl)vinyl]piperidin-1-yl}-2-oxoethyl)piperazine di-hydrochloride] showed a 50% inhibitory concentration (IC50) with sodium channel of 25 µM. In other words, the double-digit micromolar range.

In the assay on sodium channel, `CN(CC(=O)N1CCC(/C=C/c2ccc(Cl)cc2)CC1)C1CCCCC1` [Example 78, N-2-{4-[(E)-2-(4-chlorophenyl)vinyl]piperidin-1-yl}-2-oxoethyl)-N-methylcyclohexaneamine oxalate] gave a half-inhibitory concentration (IC50) of 3.1 µM. Further, the “Increase in latent time” value in assay [1] came out at 2.4 s.

Regarding `Cc1ccccc1/C=C/C1CCN(C(=O)CN2CCOCC2)CC1` [Example 3, 4-(2-{4-[(E)-2-(2-methylphenyl)vinyl]piperidin-1-yl}-2-oxoethyl)morpholine], the “Increase in latent time” value in assay [1] amounted to 2.3 s.

(Values after patent US20080070898A1, “Piperidine Derivative or Pharmaceutically Acceptable Salt Thereof” (priority 2004, published 2008).)
